Measured values as given in US6372493B1, “Hormone-secreting cells maintained in long-term culture” (Pacific Biomedical Research, Inc. [Cell Mart, Inc.], priority 1991, dated 2002).

Tests used:
[1] = system: pancreas cells in long-term culture; assay: Glucose-stimulated insulin secretion, pancreas cells generation 47, frozen/thawed or not (Example 17); assay type: cell-based, human
Description: The pancreas cell cultures described in Example 16 were passaged approximately every 3-5 days through generation 47. Passaging was done by placing 0.5-1.0 ml of cell suspension into 10 ml fresh medium in a flask. Each flask was flooded with medical blood gas mixture (supra), sealed, and maintained in an incubator at 37° C. Typically, each flask was flooded with fresh gas every other day. At passage 47, the cells had been in continuous culture for 9.5 months.
A portion of the pancreas cells at generation 47 were frozen according to the method described in Example 15 using cryopreservative A. The cells were stored frozen for 1 day, after which they were thawed according to the method described in Example 15.
The thawed cells and cells from generation 47 which had not been frozen were placed in DMSS medium and centrifuged at 1070 rpm for 5 minutes. The pellets were washed and resuspended in 30 ml of Medium PDM (Dulbecco's salt solution, phosphate buffered, with MgSO4 (no MgCl2), plus 2% BSA Fraction V), final osmolality adjusted to 272 mOsm) at 37°.
The cells were incubated 30 minutes at 37°, then centrifuged and resuspended as above. Cell count and viability were determined by Trypan blue exclusion.
The cells were then centrifuged and resuspended in a base medium consisting of 3 parts Medium PDM (supra) and 1 part DMSS, as defined in Example 6 above.

[2] = system: daughter-islet cells from human pancreas whole islets; assay: Indirect immunofluorescence for insulin after glucose stimulation of daughter-islets (Example 22); assay type: cell-based; settings: 12 mM glucose 3 hours
Description: The first assessment was made after three months in culture at the eighth passage generation and the second assessment was made after the sixteenth passage generation and eight months in continuous culture. On the average the daughter-islet cells were passed every 10-14 days. To test the response of the cells to glucose stimulation, the cultures were given a glucose poor basal medium. The basal medium as set forth in Formula VI below was a RPMI-1640 derivative containing 2 mM glucose. The cells remained in glucose poor medium for a period of 4 hours. The cells were first washed five times for 10 minutes each in the Formula VI medium prior to a 3 hour final incubation in the same basal medium. Subsequently the cultures were placed in the same medium, except that its total glucose concentration was 12 mM (instead of 2 mM glucose) for 3 hours and then prepared for indirect immunofluorescence to detect the presence of insulin.
The materials and partial protocol used in this example were as follows:
1. Primary antibody: Guinea pig monoclonal anti-insulin (human) [Peninsula Laboratories, Inc. IFK-7303G] working dilution used was 1:200.
2. Secondary antibody: Rabbit anti-guinea pig IgG (whole molecule) affinity isolated—TRITC conjugate (Sigma T-7153).
3. Negative control: 1 ml of the primary antiserum of the Guinea pig monoclonal anti-insulin (human) was added to 50 μgm of synthetic human insulin (Peninsula Laboratories, Inc.).
4. Nuclear counterstain: Hoechst 33258 (Sigma Chemical Co.), 0.1% was used.
The procedures followed for fixing the cells and the amount of primary and secondary antibodies used are given in detail in the description of procedures for Example 23. The control experiment was exposure only to the glucose poor basal medium.

[3] = system: Human pancreas cells at passage generation 47; assay: Effect of amino acids on glucose stimulated insulin secretion (Example 20); assay type: cell-based; settings: 90 minutes
Description: Human pancreas cells at passage generation 47, were prepared for the experiment as described in Example 17 above. The cells were incubated in 6 parts PDM plus 1 part DMSS medium at a concentration of 10^5 cells/ml, at various concentrations of glucose. Alanine (10 mM) or arginine(20 mM) were added, and the cells were incubated for 90 minutes, at which time samples were collected for assay of insulin content.

Structure (SMILES): O=C[C@H](O)[C@@H](O)[C@H](O)[C@H](O)CO [glucose, D(+)glucose]
- Insulin secreted ([1]; pg 47, glucose total 1 mM, 1.5 or 3 hours): 92 μIU insulin secreted/ml/10,000
- Insulin secreted ([1]; pg 47, glucose total 2 mM): 100 μIU insulin secreted/ml/10,000
- Insulin secreted ([1]; pg 47, glucose total 6 mM): 111 μIU insulin secreted/ml/10,000
- Insulin secreted ([1]; pg 47, glucose total 11 mM): 117 μIU insulin secreted/ml/10,000
- Insulin secreted ([1]; pg 47, glucose total 16 mM): 129 μIU insulin secreted/ml/10,000
- Insulin secreted ([1]; pg 47, glucose total 21 mM): 116 μIU insulin secreted/ml/10,000
- Insulin secreted ([1]; pg47 frozen/thawed, glucose total 1 mM): 99 μIU insulin secreted/ml/10,000
- Insulin secreted ([1]; pg47 frozen/thawed, glucose total 2 mM): 105 μIU insulin secreted/ml/10,000
- Insulin secreted ([1]; pg47 frozen/thawed, glucose total 6 mM): 114 μIU insulin secreted/ml/10,000
- Insulin secreted ([1]; pg47 frozen/thawed, glucose total 11 mM): 128 μIU insulin secreted/ml/10,000
- Insulin secreted ([1]; pg47 frozen/thawed, glucose total 16 mM): 125 μIU insulin secreted/ml/10,000
- Insulin secreted ([1]; pg47 frozen/thawed, glucose total 21 mM): 124 μIU insulin secreted/ml/10,000
- % of insulin positive cells ([2]; 3 mo. culture (8th passage generation)): 88%
- # cells positive for insulin (anti-insulin-RITC) ([2]; 3 mo. culture (8th passage generation), 388 cells screened): 343
- % of insulin positive cells ([2]; 8 mo. culture (16th passage generation)): 87%
- # cells positive for insulin (anti-insulin-RITC) ([2]; 8 mo. culture (16th passage generation), 195 cells screened): 170
- insulin secretion, control (glucose alone) ([3]; total 1 mM glucose, 10^5 cells/ml): 91
- insulin secretion, control (glucose alone) ([3]; total 2 mM glucose): 108
- insulin secretion, control (glucose alone) ([3]; total 6 mM glucose): 112
- insulin secretion, control (glucose alone) ([3]; total 11 mM glucose): 116
- insulin secretion, control (glucose alone) ([3]; total 16 mM glucose): 128
- insulin secretion, control (glucose alone) ([3]; total 22 mM glucose): 115
